Laboratory results taken from patent publication US20070203153A1, “Compositions and methods for treating thrombocytopenia” (Astellas Pharma Inc., priority 2005, published 2007).

Assays:
[1] = test system: Platelets of other species; test: signaling responses in platelets of other species (anti-phospho-STAT5 immunoblot); type: cell-based; conditions: baboon, rhesus, cynomolgus, squirrel monkey, marmoset, beagle dog, guinea pig, rabbit, hamster, rat, mouse platelets
[2] = test system: human cord blood CD34+ cells; test: megakaryocyte colony formation of human cord blood CD34+ cells; type: cell-based; conditions: read-out: induction of megakaryocyte colony formation, EC50
[3] = test system: G-CSF-mobilized human peripheral blood CD34+ cells; test: degree of polyploidy of G-CSF-mobilized human peripheral blood CD34+ cells after 12 days incubation; type: cell-based; conditions: compared with rhTPO-treated cells
human platelets [4] = test: activation of signaling pathways in platelets (anti-phospho-STAT5 immunoblot), human; type: cell-based
human platelets [5] = test: platelet-increasing effect in human platelet-producing NOD/SCID mice; type: in vivo; conditions: for increase in the human platelet count: day 14
Excerpt: Non-obese diabetic/severe combined immunodeficiency (NOD/SCID) mice were characterized as an efficient engraftment model for human hematopoietic stem cells, as this model results in the production of human platelets. In this way, we examined the in vivo platelet-increasing effect of FORMULA X in human platelet-producing NOD/SCID mice in which human hematopoietic stem cells were transplanted.
In this study, we used commercially available cryopreserved human fetal liver CD34+ cells as a source of human hematopoietic stem cells. The cells were transplanted into sublethally irradiated (240 cGy) NOD/SCID mice. Human platelets started to appear in peripheral blood of these mice 4 weeks after transplantation. The production of human platelets continued up to six months post-transplant. […]

[6] = test system: G-CSF-mobilized human peripheral blood CD34+ cells; test: differentiation of human CD34+ cells into megakaryocytes, serum-free liquid culture, flow cytometry; type: cell-based; conditions: day 14
Procedure: G-SCF-mobilized human peripheral blood CD34+ cells were cultured with a combination of FORMULA X and TPO, FORMULA X, or rhTPO in a serum-free liquid culture system. The numbers of CD34+CD41− cells (hematopoietic progenitor cells), CD34+CD41+ cells (megakaryocytic progenitor cells), and CD34−CD41+ cells (megakaryocytes) were measured using flow cytometry.
For purposes of this study, the number of megakaryocytes (CD34−CD41+ cells) depicted in FIG. 1 were counted using flow cytometry. The data represents the mean±SE of 5 independent experiments. *: p<0.05, ***p<0.001 compared with 3 nM TPO using Dunnett's test.
The number of hematopoietic progenitor cells ([…]) and megakaryocytic progenitor cells (CD34+CD41+ cells: b) depicted in FIGS. 2 and 3, respectively, were counted using flow cytometry, then compared with 3 nM TPO using Dunnett's test.
On the indicated days, the numbers of hematopoietic progenitor cells ([…]), megakaryocytic progenitor cells (CD34+CD41+ cells: b), and megakaryocytes (CD34−CD41+ cells: c) depicted in FIGS. 4, 5, and 6 were counted using flow cytometry on indicated days. The data represent the mean±SE of 5 independent experiments. *: p<0.05, **p<0.01, ***p<0.001 compared with 3 nM TPO using Dunnett's tests.

human c-Mpl = molecular target: T1, human c-Mpl (Homo sapiens, UniProt P40238); test: effect on TPO binding to human c-Mpl using human platelets; conditions: concentrations up to 100 microM
T1 construct: endogenous in cells; host or cells: human platelets
T1 sequence (P40238 26-635): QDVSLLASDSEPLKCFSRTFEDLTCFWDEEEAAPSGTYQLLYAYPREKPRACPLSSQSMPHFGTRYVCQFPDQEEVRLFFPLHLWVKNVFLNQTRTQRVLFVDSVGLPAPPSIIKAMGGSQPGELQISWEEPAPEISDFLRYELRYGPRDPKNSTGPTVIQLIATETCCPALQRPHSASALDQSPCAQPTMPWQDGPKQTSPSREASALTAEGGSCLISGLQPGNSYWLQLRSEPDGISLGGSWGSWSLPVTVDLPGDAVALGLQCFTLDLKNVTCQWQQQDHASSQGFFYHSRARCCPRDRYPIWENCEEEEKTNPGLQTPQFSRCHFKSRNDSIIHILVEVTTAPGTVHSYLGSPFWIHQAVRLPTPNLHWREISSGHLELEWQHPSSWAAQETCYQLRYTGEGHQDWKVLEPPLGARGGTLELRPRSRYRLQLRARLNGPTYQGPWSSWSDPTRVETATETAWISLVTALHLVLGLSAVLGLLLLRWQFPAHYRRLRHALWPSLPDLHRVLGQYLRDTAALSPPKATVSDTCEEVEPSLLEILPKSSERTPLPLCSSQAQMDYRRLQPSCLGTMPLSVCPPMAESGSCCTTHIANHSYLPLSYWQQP

murine platelets = test: murine platelet count in human platelet-producing NOD/SCID mice; type: in vivo; conditions: during the study period
Procedure: In this study, we used commercially available cryopreserved human fetal liver CD34+ cells as a source of human hematopoietic stem cells. The cells were transplanted into sublethally irradiated (240 cGy) NOD/SCID mice. Human platelets started to appear in peripheral blood of these mice 4 weeks after transplantation. The production of human platelets continued up to six months post-transplant. Various doses of FORMULA X (0, 0.3, and 3 mg/kg/day) were orally administered for 14 days to NOD/SCID mice that had been confirmed to produce human platelets stably.
The increase in the human platelet count reached about 2.7-fold at 1 mg/kg/day and about 3.0-fold at 3 mg/kg/day on day 14.

[7] = molecular target: T2, human receptor (c-Mpl)-expressing Ba/F3 cells (Homo sapiens, UniProt P40238); test: proliferation of human c-Mpl-expressing Ba/F3 cells (c-Mpl-Ba/F3 cells); type: cell-based; conditions: read-out: proliferation in a c-Mpl-dependent manner, EC50
T2 construct: expressed in transfected cells; host or cells: Ba/F3 cells
T2 sequence (P40238 26-635): T1 sequence (P40238 26-635)
Excerpt: Thrombopoietin (TPO) is a 332 amino acid cytokine that is the principal physiologic regulator of platelet production. Using a high-throughput growth assay based on the proliferation of human receptor (c-Mpl)-expressing Ba/F3 cells (c-Mpl-Ba/F3 cells), the screening of a library led to the identification of a novel series of c-Mpl agonists.

Ba/F3 cell = Ba/F3 cell growth (c-Mpl dependence control); type: cell-based; conditions: Ba/F3 cells without c-Mpl
chimpanzee platelets = test: activation of signaling pathways in platelets (anti-phospho-STAT5 immunoblot), chimpanzee; type: cell-based

| Molecule | signaling responses in platelets (anti-phospho-STAT5 immunoblot) [1] | EC50 [2] | ploidy level of cells [3] | activation of signaling pathways in platelets (human platelets [4]) | increase in the human platelet count (human platelets [5]; 1 mg/kg/day oral) | increase in the human platelet count (human platelets [5]; 3 mg/kg/day oral) | human platelet count after withdrawal of administration (human platelets [5]; after withdrawal) | number of human platelets (human platelets [5]; oral administration for 14 days, significance at 1 mg/kg/day and above) | number of megakaryocytes (CD34-CD41+ cells) ([6]; agent alone (FIG. 1)) | number of megakaryocytes (CD34-CD41+ cells) ([6]; in the presence of 3 nM TPO (FIG. 1)) | influence on rhTPO binding to human c-Mpl (human c-Mpl) | number of murine platelets (murine platelets) | EC50 [7] | effect on Ba/F3 cell growth (Ba/F3 cell) | activation of signaling pathways in platelets (chimpanzee platelets) |
| --- | --- | --- | --- | --- | --- | --- | --- | --- | --- | --- | --- | --- | --- | --- | --- |
| O=C(Nc1nc(-c2cc(Cl)cs2)c(N2CCN(C3CCCCC3)CC2)s1)c1cnc(N2CCC(C(=O)O)CC2)c(Cl)c1 [FORMULA X] | no signaling responses | 25 nM | not different from that of cells treated with rhTPO | occurred only in human and chimpanzee platelets | about 2.7 fold | about 3.0 fold | return to the pretreatment level | dose-dependently increased | increased the number of megakaryocytes in a dose-dependent fashion | dose-dependently increased | did not influence | did not change | 3.3 nM | no effect | occurred only in human and chimpanzee platelets |
| TPO: 332 amino acid cytokine that is the principal physiologic regulator of platelet production | showed signaling responses |  |  |  |  |  |  |  | increased the number of megakaryocytes in a dose-dependent fashion |  |  |  |  |  |  |
